Assay results: patent publication US20260015358A1, “BICYCLIC DERIVATIVES, COMPOSITIONS AND USES THEREOF” (Danatlas Pharmaceuticals Co., Ltd., priority 2023, published 2026)

Target: T1, WRN [UniPro: Q14191 (WRN_HUMAN), N500-C946] (Homo sapiens (Human), UniProt Q14191)
Assay: WRN ATPase assay (ADP-Glo)
Assay type: biochemical
Conditions: WRN enzymatic activity assay
Method: WRN ATPase assay was initiated to evaluate potential inhibitory effect of compounds for ATP hydrolysis activity of WRN protein. WRN [UniPro: Q14191 (WRN_HUMAN), N500-C946] was expressed and purified in insect system and stored at −80° C. in aliquots. […] ADP quantity produced from ATP hydrolysis by WRN catalytic reaction was measured using a commercially available ADP-Glo Assay (ADP-Glo™ Kinase Assay from Promega, 10000 assays, #V9102). […] Compounds dissolved in DMSO (Sigma, D8418) were plated into a 96-well intermediate plate (BioFil, VWP-032-096) for 3-fold serial titration for 10 points using DMSO, and well-to-well transfer the titrated compounds into another 96-well intermediate plate including assay buffer in advance. Shake the 96-well intermediate plate at 600 rpm for 10 min to fully mix. Specifically, a 4× working mixture of WRN was diluted to a concentration of 8 nM in assay buffer. […] After centrifuging at 1000 rpm and shaking at 500 rpm, the assay plate was pre-incubated for 30 min. Then, 5 μL 2×FORKF DNA and ATP working mixture was dispensed into assay plate. Plate was sealed, centrifuged and incubated for an additional 40 min. at 37° C. The reaction was stopped with the addition of 10 μL of the first ADP-Glo reagent and incubated for 40 min. to remove the excess amount of ATP. Afterwards, 20 μL of ATP detection reagent was added and incubated for 30 min. before reading. Luminescence output was recorded using BMG CLARIO star plus reader. Each concentration of compound was tested in duplicates in the assay plate. Average luminescence signal of high control (Wells with 1% DMSO) was calculated as High Control (HC). Average luminescence signal of low control (Wells with no WRN protein) was calculated as Low control (LC).
(§1) IC50 values were determined by fitting the data to the standard 4 parameters with Hill Slope using GraphPad Prism software.

T1 sequence (Q14191 500-946): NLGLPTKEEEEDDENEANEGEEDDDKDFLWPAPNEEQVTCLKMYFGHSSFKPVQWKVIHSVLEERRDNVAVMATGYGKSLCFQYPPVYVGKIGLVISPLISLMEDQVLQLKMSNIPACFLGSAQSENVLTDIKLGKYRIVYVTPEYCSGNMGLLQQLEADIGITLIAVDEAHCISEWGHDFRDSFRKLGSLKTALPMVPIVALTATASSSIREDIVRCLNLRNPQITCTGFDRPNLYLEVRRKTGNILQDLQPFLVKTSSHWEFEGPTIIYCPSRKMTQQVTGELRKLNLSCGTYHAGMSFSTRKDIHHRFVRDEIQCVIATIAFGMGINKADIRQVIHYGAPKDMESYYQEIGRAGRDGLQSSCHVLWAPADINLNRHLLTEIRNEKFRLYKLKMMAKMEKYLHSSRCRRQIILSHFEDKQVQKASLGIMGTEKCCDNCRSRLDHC

| IC50 [nM] | Structure (SMILES) |
| --- | --- |
| 100 to 1000 | CCc1c(N2CCN(C(=O)c3nc(C(F)(F)F)c[nH]3)CC2)c(=O)n2nc(C3=CCOCC3)nc2n1CC(=O)Nc1ccc(C(F)(F)F)cc1Cl [Example 1, N-(2-Chloro-4-(trifluoromethyl)phenyl)-2-(2-(3,6-dihydro-2H-pyran-4-yl)-5-ethyl-7-oxo-6-(4-(4-(trifluoromethyl)-1H-imidazole-2-carbonyl)piperazin-1-yl)-[1,2,4]triazolo[1,5-a]pyrimidin-4(7H)-yl)acetamide] |

Target: T1, WRN [UniPro: Q14191 (WRN_HUMAN), N500-C946]
Assay: WRN unwinding assay (FORKF DNA, fluorescence)
Assay type: biochemical
Conditions: Table 14
Method: WRN unwinding assay was initiated to evaluate potential inhibitory effect of compounds for WEN helicase activity. WRN [UniPro: Q14191 (WRN_HUMAN), N500-C946] was expressed and purified in insect system and stored at −80° C. in aliquots. […] Compounds dissolved in DMSO (Sigma, D8418) were plated into a 96-well intermediate plate (BioFil, VWP-032-096) for 3-fold serial titration for 10 points using DMSO, and well-to-well transfer the titrated compounds into another 96-well intermediate plate including assay buffer in advance. Shake the 96-well intermediate plate at 600 rpm for 10 min. to fully mix. Specifically, a 3× working mixture of WRN was diluted to a concentration of 60 nM in assay buffer. […] After centrifuging at 1000 rpm and shaking at 500 rpm, the assay plate was pre-incubated for 30 min. Then, […] 3×FORKF DNA and ATP working mixture was dispensed into assay plate. Plate was sealed, centrifuged and incubated for an additional 40 min. at 25° C. […] Each concentration of compound was tested in duplicates in the assay plate. Average fluorescence signal of high control (Wells with 1% DMSO) was calculated as High Control (HC). Average fluorescence signal of low control (Wells with no WRN protein) was calculated as Low control (LC).
as §1

| Structure (SMILES) | IC50 [nM] |
| --- | --- |
| CCc1c(N2CCN(C(=O)c3nc(C(F)(F)F)c[nH]3)CC2)c(=O)n2nc(C3=CCOCC3)nc2n1CC(=O)Nc1ccc(C(F)(F)F)cc1Cl [Example 1, N-(2-Chloro-4-(trifluoromethyl)phenyl)-2-(2-(3,6-dihydro-2H-pyran-4-yl)-5-ethyl-7-oxo-6-(4-(4-(trifluoromethyl)-1H-imidazole-2-carbonyl)piperazin-1-yl)-[1,2,4]triazolo[1,5-a]pyrimidin-4(7H)-yl)acetamide] | 100 to 1000 |
| CCc1c(N2CCN(C(=O)CNC(=O)c3ccccc3F)CC2)c(=O)n2nc(OCCOC)nc2n1CC(=O)Nc1ccc(C(F)(F)F)cc1Cl [Example 240, N-(2-(4-(4-(2-((2-Chloro-4-(trifluoromethyl)phenyl)amino)-2-oxoethyl)-5-ethyl-2-(2-methoxyethoxy)-7-oxo-4,7-dihydro-[1,2,4]triazolo[1,5-a]pyrimidin-6-yl)piperazin-1-yl)-2-oxoethyl)-2-fluorobenzamide] | > 1000 |
| CCc1c(N2CCN(C(=O)CNC(=O)c3ccccc3F)CC2)c(=O)n2nc(N3CC(OC)C3)nc2n1CC(=O)Nc1ccc(C(F)(F)F)cc1Cl [Example 242, N-(2-(4-(4-(2-((2-Chloro-4-(trifluoromethyl)phenyl)amino)-2-oxoethyl)-5-ethyl-2-(3-methoxyazetidin-1-yl)-7-oxo-4,7-dihydro-[1,2,4]triazolo[1,5-a]pyrimidin-6-yl)piperazin-1-yl)-2-oxoethyl)-2-fluorobenzamide] | 100 to 1000 |
| CCc1c(N2CCN(C(=O)CNC(=O)c3ccccc3F)CC2)c(=O)n2nc(N3CC(C#N)C3)nc2n1CC(=O)Nc1ccc(C(F)(F)F)cc1Cl [Example 243, N-(2-(4-(4-(2-((2-Chloro-4-(trifluoromethyl)phenyl)amino)-2-oxoethyl)-2-(3-cyanoazetidin-1-yl)-5-ethyl-7-oxo-4,7-dihydro-[1,2,4]triazolo[1,5-a]pyrimidin-6-yl)piperazin-1-yl)-2-oxoethyl)-2-fluorobenzamide] | 100 to 1000 |
| CCc1c(N2CCN(C(=O)CNC(=O)c3ccccc3F)CC2)c(=O)n2nc(N3CCOCC3)nc2n1CC(=O)Nc1ccc(C(F)(F)F)cc1Cl [Example 245, N-(2-(4-(4-(2-((2-Chloro-4-(trifluoromethyl)phenyl)amino)-2-oxoethyl)-5-ethyl-2-morpholino-7-oxo-4,7-dihydro-[1,2,4]triazolo[1,5-a]pyrimidin-6-yl)piperazin-1-yl)-2-oxoethyl)-2-fluorobenzamide] | < 100 |
| CCc1c(N2CCN(C(=O)CNC(=O)c3ccccc3N3CCOCC3)CC2)c(=O)n2nc(N3CCOCC3)nc2n1CC(=O)Nc1ccc(C(F)(F)F)cc1Cl [Example 247, N-(2-(4-(4-(2-((2-Chloro-4-(trifluoromethyl)phenyl)amino)-2-oxoethyl)-5-ethyl-2-morpholino-7-oxo-4,7-dihydro-[1,2,4]triazolo[1,5-a]pyrimidin-6-yl)piperazin-1-yl)-2-oxoethyl)-2-morpholinobenzamide] | 100 to 1000 |
| CCc1c(N2CCN(C(=O)c3cc4c(OC)ccnc4[nH]3)CC2)c(=O)n2nc(C3=CCOCC3)nc2n1CC(=O)Nc1ccc(C(F)(F)F)cc1Cl [Example 302, N-(2-Chloro-4-(trifluoromethyl)phenyl)-2-(2-(3,6-dihydro-2H-pyran-4-yl)-5-ethyl-6-(4-(4-methoxy-1H-pyrrolo[2,3-b]pyridine-2-carbonyl)piperazin-1-yl)-7-oxo-[1,2,4]triazolo[1,5-a]pyrimidin-4(7H)-yl)acetamide] | 100 to 1000 |
| CCc1c(N2CCN(C(=O)c3nnc(-c4ccccc4F)[nH]3)CC2)c(=O)n2nc(C3=CCOCC3)nc2n1CC(=O)Nc1ccc(C(F)(F)F)cc1F [Example 309, 2-(2-(3,6-Dihydro-2H-pyran-4-yl)-5-ethyl-6-(4-(5-(2-fluorophenyl)-4H-1,2,4-triazole-3-carbonyl)piperazin-1-yl)-7-oxo-[1,2,4]triazolo[1,5-a]pyrimidin-4(7H)-yl)-N-(2-fluoro-4-(trifluoromethyl)phenyl)acetamide] | 100 to 1000 |
| CCc1c(N2CCN(C(=O)c3c[nH]c(=O)[nH]3)CC2)c(=O)n2nc(C3=CCOCC3)nc2n1CC(=O)Nc1ccc(C(F)(F)F)cc1Cl [Example 316, N-(2-Chloro-4-(trifluoromethyl)phenyl)-2-(2-(3,6-dihydro-2H-pyran-4-yl)-5-ethyl-7-oxo-6-(4-(2-oxo-2,3-dihydro-1H-imidazole-4-carbonyl)piperazin-1-yl)-[1,2,4]triazolo[1,5-a]pyrimidin-4(7H)-yl)acetamide] | 100 to 1000 |
| CCc1c(N2CCN(C(=O)c3[nH]c(=O)oc3C(F)(F)F)CC2)c(=O)n2nc(C3=CCOCC3)nc2n1CC(=O)Nc1ccc(C(F)(F)F)cc1Cl [Example 317, N-(2-Chloro-4-(trifluoromethyl)phenyl)-2-(2-(3,6-dihydro-2H-pyran-4-yl)-5-ethyl-7-oxo-6-(4-(2-oxo-5-(trifluoromethyl)-2,3-dihydrooxazole-4-carbonyl)piperazin-1-yl)-[1,2,4]triazolo[1,5-a]pyrimidin-4(7H)-yl)acetamide] | 100 to 1000 |
| CCc1c(N2CCN(C(=O)/C=C/c3cnccc3O)CC2)c(=O)n2nc(C3=CCOCC3)nc2n1CC(=O)Nc1ccc(C(F)(F)F)cc1F [Example 328, (E)-2-(2-(3,6-Dihydro-2H-pyran-4-yl)-5-ethyl-6-(4-(3-(4-hydroxypyridin-3-yl)acryloyl)piperazin-1-yl)-7-oxo-[1,2,4]triazolo[1,5-a]pyrimidin-4(7H)-yl)-N-(2-fluoro-4-(trifluoromethyl)phenyl)acetamide] | 100 to 1000 |

Results, then the compound that gave them:

| IC50 [nM] | Structure (SMILES) |
| --- | --- |
| 100 to 1000 | CCc1c(N2CCN(C(=O)CNC(=O)OC(C)C)CC2)c(=O)n2nc(C3=CCOCC3)nc2n1CC(=O)Nc1ccc(C(F)(F)F)cc1Cl [Example 172, Isopropyl (2-(4-(4-(2-((2-chloro-4-(trifluoromethyl)phenyl)amino)-2-oxoethyl)-2-(3,6-dihydro-2H-pyran-4-yl)-5-ethyl-7-oxo-4,7-dihydro-[1,2,4]triazolo[1,5-a]pyrimidin-6-yl)piperazin-1-yl)-2-oxoethyl)carbamate] |
| 100 to 1000 | CCc1c(N2CCN(C(=O)CNC(=O)c3cccc(Cl)c3)CC2)c(=O)n2nc(C3=CCOCC3)nc2n1CC(=O)Nc1ccc(C(F)(F)F)cc1Cl [Example 175, 3-Chloro-N-(2-(4-(4-(2-((2-chloro-4-(trifluoromethyl)phenyl)amino)-2-oxoethyl)-2-(3,6-dihydro-2H-pyran-4-yl)-5-ethyl-7-oxo-4,7-dihydro-[1,2,4]triazolo[1,5-a]pyrimidin-6-yl)piperazin-1-yl)-2-oxoethyl)benzamide] |
| 100 to 1000 | CCc1c(N2CCN(C(=O)CNC(=O)c3ccccc3)CC2)c(=O)n2nc(Br)nc2n1CC(=O)Nc1ccc(C(F)(F)F)cc1Cl [Example 230, N-(2-(4-(2-Bromo-4-(2-((2-chloro-4-(trifluoromethyl)phenyl)amino)-2-oxoethyl)-5-ethyl-7-oxo-4,7-dihydro-[1,2,4]triazolo[1,5-a]pyrimidin-6-yl)piperazin-1-yl)-2-oxoethyl)benzamide] |
| 100 to 1000 | CCc1c(N2CCN(C(=O)CNC(=O)c3c(O)cccc3F)CC2)c(=O)n2nc(C3=CCOCC3)nc2n1CC(=O)Nc1ccc(C(F)(F)F)cc1Cl [Example 294, N-(2-(4-(4-(2-((2-Chloro-4-(trifluoromethyl)phenyl)amino)-2-oxoethyl)-2-(3,6-dihydro-2H-pyran-4-yl)-5-ethyl-7-oxo-4,7-dihydro-[1,2,4]triazolo[1,5-a]pyrimidin-6-yl)piperazin-1-yl)-2-oxoethyl)-2-fluoro-6-hydroxybenzamide] |
| 100 to 1000 | CCc1c(N2CCN(C(=O)CNC(=O)CN3CCCC3)CC2)c(=O)n2nc(C3=CCOCC3)nc2n1CC(=O)Nc1ccc(C(F)(F)F)cc1Cl [Example 339, N-(2-Chloro-4-(trifluoromethyl)phenyl)-2-(2-(3,6-dihydro-2H-pyran-4-yl)-5-ethyl-7-oxo-6-(4-((2-(pyrrolidin-1-yl)acetyl)glycyl)piperazin-1-yl)-[1,2,4]triazolo[1,5-a]pyrimidin-4(7H)-yl)acetamide] |
